In the OPERA property sets (Mansouri et al. 2018):

Conditions: not given
For `O=C[C@@H]1C[C@@H]2[C@@H]3[C@H]1[C@@]1(Cl)C(Cl)(Cl)[C@]3(Cl)[C@@]3(Cl)[C@@H]2[C@]31Cl`, the log10 vapour pressure (mmHg) was -6.7. For `CCC(CC)C(=O)Cl`, the boiling point was 140 °C. Compound `CCCCCCCCCCCCCCCCCCCCC1CCCCC1` has a boiling point of 430 °C and a melting point of 48.5 °C. Compound `CCCCCCC(C)CCCCCC` has a melting point of -37.2 °C. `FC(Cl)(Cl)C(Cl)Cl` showed a boiling point of 116 °C and a melting point of -82.6 °C. `Clc1cc2oc3ccc(Cl)c(Cl)c3c2cc1Cl` showed a log10 Koa of 9.78, a log10 vapour pressure (mmHg) of -7.74 and a melting point of 210 °C. With `CCOB(OCC)OCC` the boiling point was 120 °C, the log10 vapour pressure (mmHg) was 1.22 and the melting point was -84.8 °C. `c1ccc(-c2ccc(-c3ccc(-c4ccccc4)cc3)cc2)cc1` gave a melting point of 320 °C. With `CCCCC(=O)CC` the boiling point was 147 °C, the log10 vapour pressure (mmHg) was 0.415 and the melting point was -39 °C. `Cc1cc(O)c(C(C)C)cc1Cl` showed a boiling point of 258 °C and a melting point of 63 °C. Work on `O=C(O)c1ccc(O)c([N+](=O)[O-])c1` yielded a melting point of 230 °C. Work on `Clc1cc(Cl)c2c(Cl)cc(Cl)cc2c1` yielded a log10 Koa of 8.28. For `CC(C)CCC(C)O` (centres undefined), the boiling point was 151 °C and the log10 vapour pressure (mmHg) was 0.307. For `O=C(Oc1ccc2ccccc2c1)c1ccccc1O`, the melting point was 95.5 °C. With `CCCCNC(=O)COC(=O)c1ccccc1` the melting point was 69.5 °C. `CCC(=O)OC` showed a boiling point of 79.8 °C, a log10 Henry constant (atm·m³/mol) of -3.76 and a log10 vapour pressure (mmHg) of 1.92. It also gave a melting point of -87.5 °C. With `Nc1cccc(Br)c1` the boiling point was 251 °C and the melting point was 18.5 °C. Compound `CCCCCCCOC(=O)CCCC` has a boiling point of 245 °C and a melting point of -46.4 °C. Compound `O=C1CCCCC1` has a boiling point of 155 °C, a log10 Henry constant (atm·m³/mol) of -5.05 and a log10 vapour pressure (mmHg) of 0.636. For the same compound, the melting point was -31 °C and the ready biodegradability was “readily biodegradable”. Work on `COC(=O)c1sccc1S(=O)(=O)NC(=O)Nc1nc(C)nc(OC)n1` yielded a log10 Koc (L/kg) of 1.45, a log10 vapour pressure (mmHg) of -9.89 and a melting point of 176 °C. `CCCCCCCCCCCCCCCCC(=O)O` gave a boiling point of 364 °C, a log10 vapour pressure (mmHg) of -7.21 and a melting point of 61.3 °C. In the case of `CC(c1ccccc1)C1CCCCC1` (centres undefined), the boiling point is reported as 265 °C. With `C[N+]1([O-])[C@@H]2C[C@@H](OC(=O)[C@H](CO)c3ccccc3)C[C@H]1[C@@H]1O[C@@H]12` (some centres undefined) the melting point was 80 °C. With `C#CCCCCCC#C` the boiling point was 162 °C and the melting point was -27.3 °C. Work on `CNC(=O)/C=C(\C)OP(=O)(OC)OC` yielded a log10 Koc (L/kg) of 0, a log10 vapour pressure (mmHg) of -5.66 and a melting point of 55 °C. For `Clc1cc(Cl)c(-c2cc(Cl)c(Cl)c(Cl)c2Cl)cc1Cl`, the log10 Henry constant (atm·m³/mol) was -5, the log10 Koa was 9.88 and the log10 vapour pressure (mmHg) was -6.01. The logP was 7.72. `CC(C)(C)[C@@H](O)[C@H](Cc1ccc(Cl)cc1Cl)n1cncn1` gave a melting point of 148 °C. Work on `CNC(=O)Oc1cc(C)c(SC)c(C)c1` yielded a log10 Henry constant (atm·m³/mol) of -8.93, a log10 Koc (L/kg) of 2.32 and a log10 vapour pressure (mmHg) of -6.57. The melting point was 120 °C. In the case of `C[Si](C)(C)CCCCl`, the boiling point is reported as 151 °C. In the case of `CCCC(=O)C(=O)OCC`, the boiling point is reported as 182 °C. With `Clc1cccc2cccc(Cl)c12` the melting point was 89 °C. `ClCC1CC1` showed a boiling point of 88 °C and a melting point of -90.9 °C. `CCSCCSP(=O)(OC)OC` showed a log10 Koc (L/kg) of 1.49 and a log10 vapour pressure (mmHg) of -3.52. For `CNC[C@H](O)c1ccc(O)c(O)c1.O=C(O)[C@H](O)[C@@H](O)C(=O)O`, the melting point was 150 °C. In the case of `CC(C)c1ccc(C(=O)O)cc1`, the melting point is reported as 118 °C and the ready biodegradability is reported as “readily biodegradable”. Work on `OCc1cc(O)ccc1O` yielded a melting point of 100 °C. Compound `CN1CCc2c(c3ccccc3n2Cc2ccccc2)C1` has a melting point of 95 °C. With `CN(C)C(=S)SSC(=S)N(C)C` the log10 Koc (L/kg) was 2.83, the log10 vapour pressure (mmHg) was -4.76 and the melting point was 156 °C. The ready biodegradability was “readily biodegradable”. In the case of `C=CC(O)CCl` (centres undefined), the boiling point is reported as 146 °C. Compound `C=CC(C)(C)C(=O)O` has a boiling point of 185 °C and a melting point of -6 °C. With `O=c1ccocc1` the boiling point was 212 °C and the melting point was 32.5 °C. For `CCCCCCCC(C)=O`, the boiling point was 195 °C, the log10 Henry constant (atm·m³/mol) was -3.44 and the log10 vapour pressure (mmHg) was -0.205. It also gave a melting point of -7.5 °C. Work on `NC(=O)CCCCC1CCSS1` (centres undefined) yielded a melting point of 128 °C. In the case of `O=C(c1ccccc1O)c1ccccc1O`, the boiling point is reported as 333 °C and the melting point is reported as 59.5 °C. `NC1=NCCS1` gave a melting point of 85.3 °C. Compound `CCOC(=O)C1(C(=O)OCC)CC1` has a boiling point of 216 °C. In the case of `CC=C(C)CC`, the boiling point is reported as 69 °C, the log10 vapour pressure (mmHg) is reported as 2.2 and the melting point is reported as -137 °C. With `CCCCc1cc2c(=O)c(C(=O)OC)c[nH]c2cc1OCc1ccccc1` the melting point was 288 °C. With `CCn1ccc(NS(=O)(=O)c2ccc(N)cc2)nc1=O` the melting point was 166 °C. Compound `CCOC(=O)COc1cc(Cl)c(Cl)cc1Cl` has a melting point of 64 °C. `N#Cc1ccc2c(c1)N(CCCN1CCC(O)CC1)c1ccccc1S2` gave a melting point of 116 °C. For `CC(=O)NO`, the melting point was 90.5 °C. With `CCC1CO1` (centres undefined) the boiling point was 63.3 °C, the log10 vapour pressure (mmHg) was 2.26 and the ready biodegradability was “readily biodegradable”. With `Cc1ccccc1B(O)O` the melting point was 166 °C. With `CCN(CC)CCOc1ccc2nc(N(C)C)sc2c1.Cl.Cl` the melting point was 242 °C. `CC[N+](C)(C)CCN(C)CC[N+](C)(C)CC.[Br-].[Br-]` showed a melting point of 214 °C. `CCOP(=O)(OCC)OCC` showed a boiling point of 216 °C, a log10 Henry constant (atm·m³/mol) of -7.44 and a log10 vapour pressure (mmHg) of -0.406. For the same compound, the melting point was -56.4 °C and the ready biodegradability was “not readily biodegradable”. With `CC(=O)Nc1cccc(F)c1` the log10 Koc (L/kg) was 1.57 and the melting point was 83 °C. `O=C(O)C(Cl)(Cl)CCl` showed a melting point of 65.5 °C. Compound `Cn1c(=O)cc[nH]c1=O` has a log10 vapour pressure (mmHg) of -3.15. For `CCCCCCCCCCCCCCCC(OC)OC`, the melting point was 10 °C. `O=S(=O)(CCl)c1ccccc1` showed a melting point of 54 °C. Work on `CCCOC(=O)c1ccc(O)cc1` yielded a melting point of 97 °C. With `Cc1c(Br)c(Br)c(Br)c(Br)c1Br` the melting point was 288 °C and the ready biodegradability was “not readily biodegradable”. For `CCS(=O)(=O)C(C)(C)S(=O)(=O)CC`, the boiling point was 300 °C and the melting point was 126 °C. With `CN1[C@@H](CC(=O)c2ccccc2)CCC[C@H]1C[C@H](O)c1ccccc1` the melting point was 130 °C. Work on `CC#CC=CC` yielded a boiling point of 88.5 °C. For `O=S(=O)(O)c1ccc2c(O)cc(S(=O)(=O)O)cc2c1`, the ready biodegradability was “readily biodegradable”. For `CC1CNCCN1` (centres undefined), the boiling point was 153 °C and the melting point was 62 °C. For `COc1c(Cl)c(Cl)c(O)c(Cl)c1Cl`, the melting point was 116 °C. In the case of `C[C@@H]1CC[C@@]2(OC1)O[C@H]1C[C@H]3[C@@H]4CC[C@H]5C[C@@H](O)CC[C@]5(C)[C@H]4CC(=O)[C@]3(C)[C@H]1[C@@H]2C`, the melting point is reported as 266 °C. Compound `CCC1(N2CCCCC2)C(=O)NC(=O)NC1=O` has a melting point of 215 °C. Work on `CCCCCCCOC(=O)CCCCCCC` yielded a boiling point of 290 °C and a melting point of -10.6 °C. With `O=C(OCC(COC(=O)c1ccccc1)OC(=O)c1ccccc1)c1ccccc1` the melting point was 76 °C. Work on `CC(C)(C)OC(C)(C)C` yielded a boiling point of 107 °C and a log10 vapour pressure (mmHg) of 1.51. In the case of `Cc1ccc([C@H](C)O)cc1`, the boiling point is reported as 219 °C. For `CCCSP(=O)(OCC)Oc1ccc(Br)cc1Cl` (centres undefined), the log10 Koc (L/kg) was 3.03 and the log10 vapour pressure (mmHg) was -6.05. In the case of `Clc1c(Cl)c(Cl)c2c(c1Cl)Oc1c(Cl)c(Cl)c(Cl)c(Cl)c1O2`, the boiling point is reported as 510 °C, the log10 Koa is reported as 12.1 and the log10 vapour pressure (mmHg) is reported as -12.1. The melting point was 330 °C. For `CCN(CC)CC(=O)Nc1c(C)cc(C)cc1C`, the melting point was 44 °C. `FC1(F)C(F)(F)C(F)(F)C(F)(F)C(F)(F)C1(F)F` gave a boiling point of 50.6 °C and a log10 vapour pressure (mmHg) of 2.23. For `N#CCO`, the boiling point was 183 °C. For `O=C(OCc1ccccc1)c1ccccc1`, the boiling point was 324 °C, the log10 vapour pressure (mmHg) was -3.65 and the melting point was 21 °C. For the same compound, the ready biodegradability was “readily biodegradable”. Compound `CCOC(=O)c1ccc(OC)cc1` has a boiling point of 270 °C and a melting point of 7.5 °C. Compound `CC(C)OC(=O)C(C)C` has a boiling point of 121 °C and a log10 vapour pressure (mmHg) of 1.2. `O=[N+]([O-])c1cc(I)c(O)c(I)c1` showed a melting point of 157 °C. For `Clc1ccc(-c2ccc(Cl)c(Cl)c2)c(Cl)c1`, the log10 Henry constant (atm·m³/mol) was -3.92, the log10 Koa was 9.02 and the log10 vapour pressure (mmHg) was -4.33. `Cc1ccnc(C)c1` gave a boiling point of 158 °C, a log10 Henry constant (atm·m³/mol) of -5.17 and a log10 vapour pressure (mmHg) of 0.5. For the same compound, the melting point was -64 °C and the ready biodegradability was “readily biodegradable”. Compound `O=C1CCC(=O)N1c1ccccc1` has a boiling point of 400 °C and a melting point of 156 °C. `COC(=O)C1=CCCN(C)C1` showed a boiling point of 209 °C and a log10 vapour pressure (mmHg) of -1.1. For `CCCCOCCOCCOCCO`, the boiling point was 278 °C, the log10 vapour pressure (mmHg) was -2.6 and the melting point was -30 °C. `Oc1c(Cl)cc(Cl)cc1Br` gave a melting point of 68 °C. With `CC1=C(C)C(=O)C(C)=C(C)C1=O` the melting point was 112 °C. Work on `FC(F)(F)F` yielded a boiling point of -128 °C, a log10 Henry constant (atm·m³/mol) of 0.712 and a log10 Koa of -0.95. It also gave a log10 vapour pressure (mmHg) of 5.24 and a melting point of -184 °C. For `Cc1cc[nH]c1`, the boiling point was 143 °C and the melting point was -48.4 °C. `CCOP(=S)(OCC)SCCSCC` showed a log10 Koc (L/kg) of 3.22, a log10 vapour pressure (mmHg) of -4.01 and a melting point of -25 °C. In the case of `Clc1cc2oc3c(Cl)c(Cl)ccc3c2c(Cl)c1Cl`, the log10 vapour pressure (mmHg) is reported as -8.65 and the melting point is reported as 206 °C. Compound `CCC(=O)OCC1CCCO1` (centres undefined) has a boiling point of 206 °C. For `CCCCCCCCCCCCCCCCCCCCCCCCCCCCCCCCCCCCCCCC`, the melting point was 82 °C and the ready biodegradability was “readily biodegradable”. With `C[N+](C)(C)CCCl.[Cl-]` the log10 vapour pressure (mmHg) was -7.12.

Same assay, conditions: […]
Work on `C=C/C(C)=C\CC=C(C)C` yielded a log10 OH rate constant (cm³/molecule/s) of -9.6.

Same assay, conditions: fish
Compound `Clc1cccc2cccc(Cl)c12` has a log10 BCF of 3.79. Compound `CN(C)C(=S)SSC(=S)N(C)C` has a log10 BCF of 0.53 and a log10 biotransformation half-life (days) of -1.18. In the case of `CCOP(=O)(OCC)OCC`, the log10 BCF is reported as 0.11 and the log10 biotransformation half-life (days) is reported as -1.09. With `Cc1c(Br)c(Br)c(Br)c(Br)c1Br` the log10 BCF was 2.43 and the log10 biotransformation half-life (days) was -0.13. `Clc1c(Cl)c(Cl)c2c(c1Cl)Oc1c(Cl)c(Cl)c(Cl)c(Cl)c1O2` showed a log10 BCF of 3.12 and a log10 biotransformation half-life (days) of 1.16. `Clc1ccc(-c2ccc(Cl)c(Cl)c2)c(Cl)c1` showed a log10 biotransformation half-life (days) of 2.07. In the case of `CCOP(=S)(OCC)SCCSCC`, the log10 BCF is reported as 2.34 and the log10 biotransformation half-life (days) is reported as 0.03.
